Our source for the IC50 values is US11274090B2, “P300/CBP HAT inhibitors” (Constellation Pharmaceuticals, Inc., priority 2018, dated 2022).

Chain of p300 HAT domain (residues 1287-1666) (Q09472 1287-1666): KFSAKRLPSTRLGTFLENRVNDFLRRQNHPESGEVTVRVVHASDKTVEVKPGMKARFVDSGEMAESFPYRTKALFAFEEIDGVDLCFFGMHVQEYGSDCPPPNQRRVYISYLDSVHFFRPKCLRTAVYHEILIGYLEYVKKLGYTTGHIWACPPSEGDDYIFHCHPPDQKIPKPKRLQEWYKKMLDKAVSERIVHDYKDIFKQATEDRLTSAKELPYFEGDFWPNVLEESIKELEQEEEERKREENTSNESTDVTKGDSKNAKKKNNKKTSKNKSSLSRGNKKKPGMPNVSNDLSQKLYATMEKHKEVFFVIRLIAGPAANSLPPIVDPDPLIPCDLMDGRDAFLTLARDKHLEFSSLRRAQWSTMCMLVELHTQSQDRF

For the experiment, the target named is p300 HAT domain (residues 1287-1666) (Homo sapiens (Human), UniProt Q09472). Description: p300 HAT SPA assay (scintillation proximity assay, acetylation of biotinylated H3(1-21) peptide). In kind it is biochemical. The conditions noted are these: average of at least 2 replicate titrations. As to the method:
In a typical experiment the p300 HAT inhibitory activity of the compounds described herein was determined in accordance with the following experimental method.
The expressed protein was purified by Ni2+ affinity, followed by anion exchange chromatography. Appropriate fractions were pooled and buffer exchanged into 20 mM Hepes pH 7.5, 150 mM NaCl, and 1 mM TCEP.
35 μL of the reaction volume was transferred to a 384-well streptavidin FlashPlate (PerkinElmer) using a Bravo liquid handler (Velocity 11) and incubated for 1.5 hr at RT. […] Data were analyzed in Genedata to determine inhibitor IC50 values.
For `Cn1cc(-c2ccc(NC(=O)C(NCCc3c(F)cc(C#N)cc3F)c3ccccc3)nc2)cn1` (racemic) [86 racemic, (S)- and (R)-2-((4-cyano-2,6-difluorophenEthyl)amino)-N-(5-(1-methyl-1H-pyrazol-4-yl)pyridin-2-yl)-2-phenylacetamide], the concentration for half-maximal inhibition (IC50) turned out to be 0.169 µM.
Consider `Cn1cc(-c2ccc(NC(=O)[C@@H](NCCc3ccc(C#N)cc3)c3ccccc3)cc2)cn1` (single isomer, unassigned) [1 Isomer 1], for which the IC50 was 4.99 µM.
As for `CC(CNC(C(=O)Nc1ccc(-c2cnn(C)c2)cc1)c1ccccc1)c1ccc(Cl)cc1` (single isomer, unassigned) [2 Isomer 1], the figure is greater than 5 µM; as for `CC(CNC(C(=O)Nc1ccc(-c2cnn(C)c2)cc1)c1ccccc1)c1ccc(Cl)cc1` (single isomer, unassigned) [2 Isomer 3], 2.74 µM; as for `CC(CNC(C(=O)Nc1ccc(-c2cnn(C)c2)cc1)c1ccccc1)c1ccc(Cl)cc1` (single isomer, unassigned) [2 Isomer 4], greater than 5 µM.
As for `CC(Cc1ccc(Cl)cc1)NC(C(=O)Nc1ccc(-c2cnn(C)c2)cc1)c1ccccc1` (single isomer, unassigned) [3 Isomer 1], the figure is 0.196 µM; as for `CC(Cc1ccc(Cl)cc1)NC(C(=O)Nc1ccc(-c2cnn(C)c2)cc1)c1ccccc1` (single isomer, unassigned) [3 Isomer 2], greater than 5 µM.
For the molecule `CC(Cc1ccc(Cl)cc1)NC(C(=O)Nc1ccc(-c2cnn(C)c2)cc1)c1ccccc1` (single isomer, unassigned) [3 Isomer 3], the IC50 was greater than 5 µM.
As for `CC(Cc1ccc(Cl)cc1)NC(C(=O)Nc1ccc(-c2cnn(C)c2)cc1)c1ccccc1` (single isomer, unassigned) [3 Isomer 4], the figure is 3.89 µM; as for `Cn1cc(-c2ccc(NC(=O)C(NCCc3ccc(S(N)(=O)=O)cc3)c3ccccc3)cc2)cn1` (single isomer, unassigned) [4 Isomer 1], 4.99 µM; as for `Cn1cc(-c2ccc(NC(=O)C(NCCc3ccc(S(N)(=O)=O)cc3)c3ccccc3)cc2)cn1` (single isomer, unassigned) [4 Isomer 2], 1.37 µM.
In turn, `Cn1cc(-c2ccc(NC(=O)[C@@H](NCCc3ccc(Cl)cc3)c3ccccc3)cc2)cn1` (single isomer, unassigned) [5 Isomer 2] gave a half-maximal inhibitory concentration (IC50) greater than 5 µM.
For the molecule `CC(CNC(C(=O)Nc1ccc(-c2cnn(C(C)(C)CO)c2)cn1)c1ccccc1)c1ccc(C#N)cc1` (single isomer, unassigned) [8 Isomer 1], inhibition was half-maximal at 0.309 µM (IC50). This lies in the sub-micromolar range.
As for `CC(CNC(C(=O)Nc1ccc(-c2cnn(C(C)(C)CO)c2)cn1)c1ccccc1)c1ccc(C#N)cc1` (single isomer, unassigned) [8 Isomer 2], the IC50 amounted to 1.35 µM.
To `CC(CNC(C(=O)Nc1ccc(-c2cnn(C(C)(C)CO)c2)cn1)c1ccccc1)c1ccc(C#N)cc1` (single isomer, unassigned) [8 Isomer 3] belongs 1.23 µM; to `CC(CNC(C(=O)Nc1ccc(-c2cnn(C(C)(C)CO)c2)cn1)c1ccccc1)c1ccc(C#N)cc1` (single isomer, unassigned) [8 Isomer 4], 0.0196 µM; to `Cc1cnc(-c2ccc(NC(=O)[C@@H](NCCc3ccc(Cl)cc3)c3ccccc3)cc2)[nH]1` (single isomer, unassigned) [9 Isomer 1], greater than 5 µM.
In turn, `Cc1cnc(-c2ccc(NC(=O)[C@@H](NCCc3ccc(Cl)cc3)c3ccccc3)cc2)[nH]1` (single isomer, unassigned) [9 Isomer 2] had a half-inhibitory concentration (IC50) of 0.133 µM.
To `O=C(Nc1ccc(-c2cccnn2)cc1)C(NCCc1ccc(Cl)cc1)c1ccccc1` (single isomer, unassigned) [10 Isomer 1] belongs greater than 5 µM; to `O=C(Nc1ccc(-c2cccnn2)cc1)C(NCCc1ccc(Cl)cc1)c1ccccc1` (single isomer, unassigned) [10 Isomer 2], 0.58 µM.
As for `Cc1cnc(-c2ccc(NC(=O)C(NCCc3ccc(C#N)cc3)c3ccccc3)cc2)[nH]1` (single isomer, unassigned) [11 Isomer 1], the figure is 0.279 µM.
`Cc1cnc(-c2ccc(NC(=O)C(NCCc3ccc(C#N)cc3)c3ccccc3)cc2)[nH]1` (single isomer, unassigned) [11 Isomer 2]: the half-inhibitory concentration (IC50) was greater than 5 µM.
In turn, `N#Cc1ccc(CCNC(C(=O)Nc2ccc(-c3cccnn3)cc2)c2ccccc2)cc1` (single isomer, unassigned) [12 Isomer 1] yielded a half-maximal inhibitory concentration (IC50) greater than 5 µM.
In the case of `Cc1ccc(-c2ccc(NC(=O)C(NCC(C)c3ccc(C#N)cc3)c3ccccc3)nc2)nn1` (single isomer, unassigned) [15 Isomer 1], the half-maximal inhibitory concentration (IC50) was greater than 2 µM.
As for `Cc1ccc(-c2ccc(NC(=O)C(NCC(C)c3ccc(C#N)cc3)c3ccccc3)nc2)nn1` (single isomer, unassigned) [15 Isomer 2], the figure is greater than 2 µM; as for `Cc1ccc(-c2ccc(NC(=O)C(NCC(C)c3ccc(C#N)cc3)c3ccccc3)nc2)nn1` (single isomer, unassigned) [15 Isomer 3], greater than 2 µM.
`Cc1cn(-c2ccc(NC(=O)[C@@H](NCCc3ccc(Cl)cc3)c3ccccc3)cc2)cn1` (single isomer, unassigned) [16 Isomer 2] returned a half-maximal inhibitory concentration (IC50) greater than 5 µM.
On to `CN1CCN(c2ccc(NC(=O)[C@@H](NCCc3ccc(Cl)cc3)c3ccccc3)cc2)CC1` (single isomer, unassigned) [17 Isomer 2], for which the half-maximal inhibitory concentration (IC50) was greater than 5 µM.
As for `Cn1cc(-c2ncc(NC(=O)C(NCCc3ccc(C#N)cc3)c3ccccc3)cn2)cn1` (single isomer, unassigned) [23 Isomer 1], the figure is greater than 5 µM; as for `Cn1cc(-c2ncc(NC(=O)C(NCCc3ccc(C#N)cc3)c3ccccc3)cn2)cn1` (single isomer, unassigned) [23 Isomer 2], greater than 5 µM.
As to `COc1cc(-c2cnn(C)c2)ccc1NC(=O)C(NCCc1ccc(C#N)cc1)c1ccccc1` (single isomer, unassigned) [24 Isomer 1], the half-inhibitory concentration (IC50) was greater than 5 µM.
As for `COc1cc(-c2cnn(C)c2)ccc1NC(=O)C(NCCc1ccc(C#N)cc1)c1ccccc1` (single isomer, unassigned) [24 Isomer 2], the figure is 0.607 µM; as for `COc1cc(NC(=O)C(NCCc2ccc(C#N)cc2)c2ccccc2)ccc1-c1cnn(C)c1` (single isomer, unassigned) [25 Isomer 2], greater than 5 µM.
On to `Cn1cc(-c2ccc(NC(=O)C(NCCc3ccc(C#N)cc3)c3ccccc3)c(Cl)c2)cn1` (single isomer, unassigned) [26 Isomer 2], for which inhibition was half-maximal at 1.85 µM (IC50). That is a single-digit micromolar value.
As for `Cn1cc(-c2ccc(NC(=O)C(NCCc3ccc(C#N)cc3)c3ccccc3)cc2Cl)cn1` (single isomer, unassigned) [27 Isomer 2], the figure is greater than 5 µM; as for `Cn1cc(-c2ccc(NC(=O)C(NCCc3ccc(C#N)cc3F)c3ccccc3)nc2)cn1` (single isomer, unassigned) [29 Isomer 1], 0.0229 µM; as for `Cn1cc(-c2ccc(NC(=O)C(NCCc3ccc(C#N)cc3F)c3ccccc3)nc2)cn1` (single isomer, unassigned) [29 Isomer 2], 2.76 µM.
To `N#Cc1ccc(CCNC(C(=O)Nc2ccn(C3CCOCC3)n2)c2ccccc2)cc1` (single isomer, unassigned) [30 Isomer 1] belongs greater than 5 µM; to `N#Cc1ccc(CCNC(C(=O)Nc2ccn(C3CCOCC3)n2)c2ccccc2)cc1` (single isomer, unassigned) [30 Isomer 2], greater than 5 µM; to `COC1CN(c2ccc(NC(=O)C(NCC(C)c3ccc(C#N)cc3)c3ccccc3)nc2)C1` (single isomer, unassigned) [32 Isomer 1], greater than 2 µM.
As to `COC1CN(c2ccc(NC(=O)C(NCC(C)c3ccc(C#N)cc3)c3ccccc3)nc2)C1` (single isomer, unassigned) [32 Isomer 2], it took 0.0188 µM to reach half-maximal inhibition (IC50).
`COC1CN(c2ccc(NC(=O)C(NCC(C)c3ccc(C#N)cc3)c3ccccc3)nc2)C1` (single isomer, unassigned) [32 Isomer 3] registered an IC50 greater than 2 µM.
To `COC1CN(c2ccc(NC(=O)C(NCC(C)c3ccc(C#N)cc3)c3ccccc3)nc2)C1` (single isomer, unassigned) [32 Isomer 4] belongs greater than 2 µM.
For `N#Cc1ccc(CCNC(C(=O)Nc2ccc(N3CCCC3)nc2)c2ccccc2)cc1` (single isomer, unassigned) [35 Isomer 1], the IC50 is greater than 5 µM.
In turn, `N#Cc1ccc(CCNC(C(=O)Nc2ccc(N3CCCC3)nc2)c2ccccc2)cc1` (single isomer, unassigned) [35 Isomer 2] gave a 50% inhibitory concentration (IC50) greater than 5 µM.
`CN1CCN(c2ccc(NC(=O)C(NCCc3ccc(C#N)cc3)c3ccccc3)cn2)CC1` (single isomer, unassigned) [36 Isomer 1] registered an IC50 of 3.27 µM.
As for `CN1CCN(c2ccc(NC(=O)C(NCCc3ccc(C#N)cc3)c3ccccc3)cn2)CC1` (single isomer, unassigned) [36 Isomer 2], the figure is greater than 5 µM; as for `N#Cc1ccc(CCNC(C(=O)Nc2ccc(N3CCCC3)cn2)c2ccccc2)cc1` (single isomer, unassigned) [37 Isomer 2], 3.73 µM; as for `N#Cc1ccc(CCNC(C(=O)Nc2ccc(N3CCC(F)(F)CC3)cn2)c2ccccc2)cc1` (single isomer, unassigned) [38 Isomer 1], 0.206 µM.
`N#Cc1ccc(CCNC(C(=O)Nc2ccc(N3CCC(F)(F)CC3)cn2)c2ccccc2)cc1` (single isomer, unassigned) [38 Isomer 2]: the IC50 was greater than 2 µM.
To `Cc1nc(NC(=O)C(NCC(C)c2ccc(C#N)cc2)c2ccccc2)ccc1-c1cnn(C)c1` (single isomer, unassigned) [39 Isomer 1] belongs greater than 2 µM; to `Cc1nc(NC(=O)C(NCC(C)c2ccc(C#N)cc2)c2ccccc2)ccc1-c1cnn(C)c1` (single isomer, unassigned) [39 Isomer 2], greater than 2 µM.
